# Test results reported in patent US6532386B2, “Electrotransort device comprising blades” (Johnson & Johnson Consumer Companies, Inc., priority 1998, dated 2003).
# Key:
# [1] = Transdermal reverse polarity iontophoresis of insulin in pig: blood glucose concentration; assay type: in vivo
# Protocol: The procedure in Example 3 was repeated, except the stratum corneum of the pig was not disrupted with 400 μm blades and reverse polarity iontophoresis was only conducted for 30 minutes. […] Thus, no insulin was apparently delivered during the iontophoresis process.
# The procedure in Example 4 was repeated, except 800 μm blades were pressed against the stratum corneum of a diabetic pig before iontophoresis was performed. The blood glucose in the pig was monitored for 9 hours.
# The procedure described in Example 5 was then repeated.
# The procedure in Example 5 was repeated except that ethyl cyanoacrylate was applied to the surface of the 800 μm blades before the blades were pressed against the skin of the pig. The blades were held against the skin of the pig for 2 minutes prior to performing iontophoresis to allow the ethyl cyanoacrylate to solidify prior to removal. […] The blood glucose concentration in the pig was monitored for 8 hours. The quantity of insulin delivered was so large that the hyperglycemic pig having an initial blood glucose concentration of 180 mg/dl became seriously hypoglycemic with a blood glucose concentration of 25 mg/dl.
# [2] = Description: The stratum corneum was physically disrupted by repeatedly scratching the skin of a pig with 400 μm blades 20 times, 10 scratchings in one direction, 10 more in a direction perpendicular to the previous direction. Two electrodes were constructed with hollow 3.5 cm by 3.5 cm by 0.5 cm polystyrene vessels each having a volume of about 5 cm^3. A 3 cm by 3 cm by 0.5 mm piece of stainless steel was adhered to the inside of each polystyrene vessel. The electrodes were affixed to the skin of the pig with Dow Corning 355 Medical Adhesive available from Dow Corning of Midland, Mich.
# An insulin solution available as Humulin-®(500 units/mL) from Eli Lilly and Co. of Indianapolis, Ind., was injected into the vessel with a hyperdermic needle. Iontophoresis was performed with direct current at a current intensity of 4 mA over about 12 cm^2 of skin. The electric polarity was manually reversed every 5 minutes for 2 hours. The blood glucose concentration and insulin serum concentration in the pig were periodically measured before, during, and after iontophoresis.
# The skin on a pig was wiped generously with 200 proof ethanol and allowed to dry to induce skin permeation enhancement. The procedure described in Example 5 was then repeated. The blood glucose concentration and insulin serum concentration in the pig were monitored for 6 hours. […]
# [3] = Example 5: diabetic pig, 800 μm blades, iontophoresis 30 minutes
substance,measurement,setting,value
insulin,reduction in blood glucose,"[1]; Comparative Example 4: stratum corneum not disrupted with blades, reverse polarity iontophoresis 30 minutes",lack of any reduction in blood glucose
same,blood glucose concentration,"[1]; Example 3: pig skin scratched with 400 μm blades, iontophoresis 4 mA over about 12 cm^2, polarity reversed every 5 minutes for 2 hours, from 140 mg/dl",30 mg/dL
same,reduction of the blood glucose concentration,"[1]; Example 3: pig skin scratched with 400 μm blades, reverse polarity iontophoresis for 2 hours",~80%
same,reduction in the blood glucose concentration,"[1]; Example 5: diabetic pig, 800 μm blades pressed against stratum corneum, iontophoresis 30 minutes, monitored 9 hours",~37%
same,blood glucose level maintained,[1]; [3],below 140 mg/dl
same,time blood glucose level was maintained below 140 mg/dl,[1]; [3],over 8 hours
same,reduction of blood glucose,"[1]; Example 6: skin wiped with 200 proof ethanol, 800 μm blades, after 2 hours",~50%
same,reduction of blood glucose,"[1]; Example 7: skin pre-treated with Nair lotion (calcium thioglycolate), 800 μm blades, iontophoresis 120 minutes, after 3 hours",30%
same,blood glucose concentration,"[1]; Example 8: hyperglycemic pig, ethyl cyanoacrylate on 800 μm blades, iontophoresis 120 minutes, initial 180 mg/dl",25 mg/dL
same,insulin serum rise (insulin serum concentration),"[2]; Example 3: pig skin scratched with 400 μm blades, reverse polarity iontophoresis for 2 hours, from 25",590 _IU/ml
same,serum insulin concentration,"[2]; Example 6: skin wiped with 200 proof ethanol, 800 μm blades, after one hour",approximately 60 _IU/ml
